Measurements: article PMC7972841, “In Vivo Molecular Imaging of the Efficacy of Aminopeptidase N (APN/CD13) Receptor Inhibitor Treatment on Experimental Tumors Using ^68Ga-NODAGA-c(NGR) Peptide” (BioMed Research International, 2021)
Read-outs that look alike come from different tables or passages of the source. Where a SMILES comes first, the peptide text is derived from it. Bridges are numbered along the chain shown (N, C = ends). The star is where a group is joined. NODAGA = O=C(O)CN1CCN(CC(=O)O)CCN(C(CCC(=O)*)C(=O)O)CC1

Tests used:
[1] = in vitro; type: in vitro ADME; conditions: mouse, serum
Protocol: 5 mg (8.6 μmol) c[KNGRE]-NH2 peptide was dissolved in 0.9 mL 0.1 mol/dm^3 Na2CO3 buffer (pH = 8.42), then 7.5 mg (10.2 μmol) NODAGA-NHS ester dissolved in 0.1 mL DMSO was added to the peptide. The reaction was mixed for 24 hours at room temperature. NODAGA-c(NGR) was purified with semipreparative HPLC (KNAUER) and freeze-dried. For the radiolabeling procedure, the in vitro serum stability, and the determination of logp value, the same protocol was used as it was described earlier by our research group.
For the determination of the enzymatic stability, a stock solution was prepared from 100 μL of ^68Ga-NODAGA-c(NGR) solution and 1 mL PBS. 20 μL from this solution was introduced to 480 μL mouse serum (Sigma-Aldrich, St. Louis, Missouri, USA), and the mixture was tempered at 37°C. After 0, 30, 60, 90, and 120 min incubation time, 50 μL sample was taken and 50 μL abs. EtOH was added to the aliquots. Samples were centrifuged (20,000 rpm, 5 min), the supernatant was removed and diluted with the eluent of HPLC, then the analytical measurement was prepared.

[2] = set-up: species or system mice; conditions: mouse, in vivo
Protocol: (§2) After in vivo PET imaging, control-untreated tumor-bearing and treated tumor-bearing animals were euthanized with 5% Forane and dissected, and blood, urine, and samples were taken from the liver, spleen, kidney, small intestine, large intestine, stomach, heart, lungs, tumors, muscles, and fat. The weight and radioactivity of the selected organs and tissues were measured with a calibrated gamma counter (Hewlett Packard Cobra II Autogama Gamma Counter). The uptake of the APN/CD13-specific ^68Ga-NODAGA-c(NGR) radiotracer was expressed as %ID/g tissue.

[3] = tested on: HT1080 tumors (APN/CD13); conditions: for T/M SUVmean ratio of treated tumor: 90 min after iv tracer; for ^68Ga-NODAGA-c(NGR) SUVmean of treated tumor: PET 90 min after iv tracer, mean ± SD
Protocol: (§3) For experimental tumor induction, mice were anaesthetized with a dedicated small animal anaesthesia device (Tec3 Isoflurane Vaporizer, Eickemeyer Veterinary Equipment, UK) using 3% isoflurane (Forane, AbbVie), 0.4 L/min O2, and 1.4 L/min N2O. After depilation of the left shoulder area of the animals, CB17 SCID mice (n = 30) were injected subcutaneously with 1.5 × 10^6 HT1080 (human fibrosarcoma) cells in 150 μL (1/3 part of Matrigel and 2/3 part of saline), and C57BL/6 mice (n = 30) were injected subcutaneously with 3 × 10^6 B16-F10 cells in 150 μL of sterile saline. […] The tumor size was calculated using the following formula: (largest diameter × smallest diameter^2)/2.
(§4) For the actinonin-treated groups, 5 mg/kg actinonin (dissolved in 10 μL abs. EtOH and diluted with 140 μL HumAqua (aqua destillata, TEVA, Debrecen, Hungary)) was administrated daily by intraperitoneal injection for 7 days. The control-untreated group was injected intraperitoneally with 150 μL saline for 7 days.
(§5) Five and ten days after tumor cell implantation, control-untreated tumor-bearing and treated tumor-bearing animals were anaesthetized with 3% isoflurane and were injected with 5.5 ± 0.2 MBq APN/CD13-specific ^68Ga-NODAGA-c(NGR) in 150 μL saline via the lateral tail vein. After 90 min incubation time, 20 min static PET scans were performed from the tumorous area using the preclinical miniPET device (University of Debrecen, Faculty of Medicine, Department of Medical Imaging, Division of Nuclear Medicine and Translational Imaging). After 3D OSEM-LOR image reconstruction, volumes of interest (VOIs) were manually drawn around the examined regions using the BrainCAD image analysis software and quantitative standardized uptake values (SUVs) were calculated as follows: SUV = [VOI activity (Bq/mL)]/[injected activity (Bq)/animal weight (g)], assuming a density of 1 g/mL. Tumor-to-muscle (T/M) ratios were calculated from the activity of the tumor and background (muscle).

[4] = tested on: B16-F10 tumors (APN/CD13); conditions: for T/M ratio of treated tumor: 90 min after iv tracer; for ^68Ga-NODAGA-c(NGR) SUVmean of treated tumor: PET 90 min after iv tracer, mean ± SD
Protocol: as §3, §4, §5

[5] = in vivo; conditions: CB17 SCID, mouse, iv, 5.5 MBq, total radioactivity, SUVmean of tumor
Protocol: as §3, §4, §5

[6] = in vivo; conditions: C57BL/6, mouse, iv, 5.5 MBq, total radioactivity, SUVmean of tumor
Protocol: as §3, §4, §5

[7] = in vivo; conditions: CB17 SCID, mouse, iv, 5.5 MBq, total radioactivity
Protocol: as §4, §2

[8] = in vivo; conditions: C57BL/6, mouse, iv, 5.5 MBq, total radioactivity, tracer uptake
Protocol: as §4, §2

[9] = tested on: HT1080 tumors; assay: Tumor volume, HT1080 tumors; type: in vivo, CB17 SCID mice; conditions: caliper, n = 10/group
Protocol: (§6) For experimental tumor induction, mice were anaesthetized with a dedicated small animal anaesthesia device (Tec3 Isoflurane Vaporizer, Eickemeyer Veterinary Equipment, UK) using 3% isoflurane (Forane, AbbVie), 0.4 L/min O2, and 1.4 L/min N2O. After depilation of the left shoulder area of the animals, CB17 SCID mice (n = 30) were injected subcutaneously with 1.5 × 10^6 HT1080 (human fibrosarcoma) cells in 150 μL (1/3 part of Matrigel and 2/3 part of saline), and C57BL/6 mice (n = 30) were injected subcutaneously with 3 × 10^6 B16-F10 cells in 150 μL of sterile saline. Tumor growth was assessed by caliper measurements by the same experienced researcher. The tumor size was calculated using the following formula: (largest diameter × smallest diameter^2)/2.
as §4

[10] = tested on: B16-F10 tumors; assay: Tumor volume, B16-F10 tumors; type: in vivo, C57BL/6 mice; conditions: caliper, n = 10/group
Protocol: as §6, §4

[11] = tested on: APN/CD13; assay: Western blot analysis of APN/CD13 in B16-F10 tumors; type: in vivo, mouse; conditions: B16-F10 melanoma after treatment, densitometry
Protocol: For western blot analysis frozen tissue samples were pulverized under liquid nitrogen and tissue homogenization was performed with TissueLyser II (QIAGEN). Cells were lysed in RIPA buffer (50 mM Tris, 150 mM NaCl, 0.1 % SDS, 1 % TritonX 100, 0.5 % sodium deoxycolate, 1 mM EDTA, 1 mM Na3VO4, 1 mM NaF, 1 mM PMSF, protease inhibitor cocktail). […] Upon densitometry, negative control samples (mouse large intestine) were considered to be 1 and values are expressed as fold change relative to controls to reduce unwanted variations. […]

[12] = tested on: AKR tumor; conditions: 5 mg/kg, syngeneic AKR tumor-bearing mice; cited from earlier work
Source text: (§1) In our further in vivo experiments, the efficacy of the actinonin and bestatin treatments was investigated on experimental tumors. The antitumor effect of actinonin was investigated earlier by Xu and coworkers on human (HL60, NB4) and murine (AKR) leukemia and lymphoma (RAJI, DAUDI) cell lines. […] In in vivo studies, syng ...

[13] = tested on: human (HL60, NB4) and murine (AKR) leukemia cell lines; conditions: in vitro; cited from earlier work
Source text: as §1

[14] = tested on: human lymphoma; conditions: subcutaneous human lymphoma-bearing nude mice; cited from earlier work
Source text: as §1

[15] = tested on: lymphoma (RAJI, DAUDI) cell lines; conditions: in vitro; cited from earlier work
Source text: as §1

[16] = tested on: HT1080 tumor; assay: Ex vivo biodistribution, HT1080 tumor-bearing mice; conditions: HT1080 tumor-bearing mice treated ip daily (bestatin 15 mg/kg or actinonin 5 mg/kg), mean±SD, n=10
Protocol: as §4, §2

[17] = tested on: B16-F10 tumor; assay: Ex vivo biodistribution, B16-F10 tumor-bearing mice; conditions: B16-F10 tumor-bearing mice treated ip daily (bestatin 15 mg/kg or actinonin 5 mg/kg), mean±SD, n=10
Protocol: as §4, §2

[18] = tested on: APN/CD13; assay: Western blot analysis of APN/CD13 in HT1080 tumors; type: in vivo, human; conditions: HT1080 tumors after treatment, densitometry
Protocol: For western blot analysis, frozen tissue samples were pulverized under liquid nitrogen, and tissue homogenization was performed with TissueLyser II (QIAGEN). Tumors were lysed in a RIPA buffer. After protein isolation, protein samples (10-40 μg) were separated on 10% SDS polyacrylamide gels and electrotransferred onto nitrocellulose membranes. After blocking, the membranes were incubated with primary anti-human and anti-mouse CD13 (from Santa-Cruz Biotechnology, Inc., USA) antibody at the dilution of 1 : 1000 overnight at 4°C. After washing, the membranes were probed with IgG HRP conjugated secondary antibody (Cell Signaling Technology, Inc., Beverly, MA, 1 : 2000). Beta-actin was used as a loading control. Bands were visualized by enhanced chemiluminescence reaction. Densitometry was performed using the ImageJ software. For the detailed protocol, please see Supplementary Material western blot analysis.
For western blot analysis frozen tissue samples were pulverized under liquid nitrogen and tissue homogenization was performed with TissueLyser II (QIAGEN). […] Upon densitometry, negative control samples (mouse large intestine) were considered to be 1 and values are expressed as fold change relative to controls to reduce unwanted variations. […]

[19] = HT1080, day 3 (start of treatment)
[20] = HT1080, day 5, bestatin 15 mg/kg or actinonin 5 mg/kg ip daily
[21] = HT1080, day 10, bestatin 15 mg/kg or actinonin 5 mg/kg ip daily 7 days
[22] = B16-F10, day 3 (start of treatment)
[23] = B16-F10, day 5, bestatin 15 mg/kg or actinonin 5 mg/kg ip daily
[24] = B16-F10, day 10, bestatin 15 mg/kg or actinonin 5 mg/kg ip daily 7 days
[25] = HT1080, day 5, ip daily from day 3 (bestatin 15 mg/kg, actinonin 5 mg/kg)
[26] = HT1080, day 10, ip daily 7 days (bestatin 15 mg/kg, actinonin 5 mg/kg)
[27] = B16-F10, day 5, ip daily from day 3 (bestatin 15 mg/kg, actinonin 5 mg/kg)
[28] = B16-F10, day 10, ip daily 7 days (bestatin 15 mg/kg, actinonin 5 mg/kg)

N=C(N)NCCC[C@@H]1NC(=O)CNC(=O)[C@H](CC(N)=O)NC(=O)[C@H](CCCCNC(=O)CCC(C(=O)O)N2CCN(CC(=O)O)CCN(CC(=O)O)CC2)NC(=O)CC[C@@H](C(N)=O)NC1=O (some centres unmarked) [^68Ga-NODAGA-c(NGR), metal not drawn] (K(NODAGA)NGRE-NH2; lactam N-5 (inferred))
remaining at 2 h [1]: > 99%
accumulation in the kidneys [2]: 1.3-1.6 ID%/g
uptake in the liver [2]: 0.08-0.28 ID%/g
SUVmean of tumor ([3]; CB17 SCID, mouse, in vivo, iv, 5.5 MBq, 1.5 h): 0.10 ± 0.05
SUVmean of tumor ([4]; C57BL/6, mouse, in vivo, iv, 5.5 MBq, 1.5 h): 0.36 ± 0.05
SUV at 1.5 h [5]: 0.07 ± 0.03 SUV
SUV at 1.5 h [6]: 0.19 ± 0.03 SUV
tissue uptake at 1.5 h ([7]; T/M ID%/g (%ID/g tumor/%ID/g muscle)): 5.3 ± 0.56 %ID/g
tissue uptake at 1.5 h ([7]; tracer uptake, blood): 0.04 ± 0.01 %ID/g
tissue uptake at 1.5 h ([7]; tracer uptake, fat): 0.02 ± 0.01 %ID/g
tissue uptake at 1.5 h ([7]; tracer uptake, heart): 0.03 ± 0.01 %ID/g
tissue uptake at 1.5 h ([7]; tracer uptake, kidney): 1.35 ± 0.45 %ID/g
tissue uptake at 1.5 h ([7]; tracer uptake, large intestine): 0.06 ± 0.01 %ID/g
tissue uptake at 1.5 h ([7]; tracer uptake, liver): 0.2 ± 0.01 %ID/g
tissue uptake at 1.5 h ([7]; tracer uptake, lung): 0.1 ± 0.02 %ID/g
tissue uptake at 1.5 h ([7]; tracer uptake, muscle): 0.01 %ID/g
tissue uptake at 1.5 h ([7]; tracer uptake, small intestine): 0.04 %ID/g
tissue uptake at 1.5 h ([7]; tracer uptake, spleen): 0.11 ± 0.02 %ID/g
tissue uptake at 1.5 h ([7]; tracer uptake, stomach): 0.04 ± 0.01 %ID/g
tissue uptake at 1.5 h ([7]; tracer uptake, tumor): 0.08 ± 0.04 %ID/g
tissue uptake at 1.5 h ([8]; blood): 0.09 ± 0.03 %ID/g
tissue uptake at 1.5 h ([8]; fat): 0.01 %ID/g
tissue uptake at 1.5 h ([8]; heart): 0.04 ± 0.01 %ID/g
tissue uptake at 1.5 h ([8]; kidney): 1.38 ± 0.13 %ID/g
tissue uptake at 1.5 h ([8]; large intestine): 0.06 ± 0.02 %ID/g
tissue uptake at 1.5 h ([8]; liver): 0.08 ± 0.02 %ID/g
tissue uptake at 1.5 h ([8]; lung): 0.1 ± 0.01 %ID/g
tissue uptake at 1.5 h ([8]; muscle): 0.02 %ID/g
tissue uptake at 1.5 h ([8]; small intestine): 0.07 ± 0.01 %ID/g
tissue uptake at 1.5 h ([8]; spleen): 0.05 ± 0.01 %ID/g
tissue uptake at 1.5 h ([8]; stomach): 0.06 ± 0.01 %ID/g
tissue uptake at 1.5 h ([8]; tumor): 0.27 ± 0.05 %ID/g

CCCCC[C@H](CC(=O)NO)C(=O)N[C@H](C(=O)N1CCC[C@H]1CO)C(C)C [actinonin]
tumor volume [9, 19]: 49.1 ± 2.0 mm^3
tumor volume [9, 20]: 68.08 ± 2.5 mm^3
tumor volume [9, 21]: 136.0 ± 8.5 mm^3
tumor volume [10, 22]: 49.0 ± 2.7 mm^3
tumor volume [10, 23]: 59 ± 4.9 mm^3
tumor volume [10, 24]: 56.1 ± 2.1 mm^3
expression of APN/CD13 in tumor vs untreated [11]: significantly lower
T/M SUVmean ratio of treated tumor [3, 20]: 2.25 ± 1.0
^68Ga-NODAGA-c(NGR) SUVmean of treated tumor [3, 25]: 0.08 ± 0.04
T/M SUVmean ratio of treated tumor [3, 21]: 15.57 ± 4.0
^68Ga-NODAGA-c(NGR) SUVmean of treated tumor [3, 26]: 0.11 ± 0.05
T/M ratio of treated tumor [4, 23]: 0.75 ± 0.15
^68Ga-NODAGA-c(NGR) SUVmean of treated tumor [4, 27]: 0.02 ± 0.001
T/M ratio of treated tumor [4, 24]: 0.74 ± 0.05
^68Ga-NODAGA-c(NGR) SUVmean of treated tumor [4, 28]: 0.02 ± 0.001
antitumor effect [12]: full antitumor effect
tumor growth of APN/CD13-positive leukemia [13]: blocked the tumor growth
antitumor effect [14]: not seen
growth of APN/CD13-negative lymphomas [15]: arrested the growth
T/M ID%/g, treated animals [16]: 15.27±5.52
T/M ID%/g, treated animals [17]: 1.71±1.45

CC(C)C[C@H](NC(=O)[C@@H](O)[C@H](N)Cc1ccccc1)C(=O)O [bestatin]
tumor volume [9, 19]: 52.3 ± 2.8 mm^3
tumor volume [9, 20]: 17 ± 1.2 mm^3
tumor volume [9, 21]: 7.0 ± 2.0 mm^3
tumor volume [10, 22]: 52.1 ± 2.6 mm^3
tumor volume [10, 23]: 65.0 ± 5.2 mm^3
tumor volume [10, 24]: 62.0 ± 2.8 mm^3
amount of APN/CD13 protein in tumor vs control-untreated [18]: did not significantly reduce
expression of APN/CD13 in tumor vs untreated [11]: significantly lower
T/M SUVmean ratio of treated tumor [3, 20]: 0.57 ± 0.2
^68Ga-NODAGA-c(NGR) SUVmean of treated tumor [3, 25]: 0.02 ± 0.01
T/M SUVmean ratio of treated tumor [3, 21]: 0.61 ± 0.20
^68Ga-NODAGA-c(NGR) SUVmean of treated tumor [3, 26]: 0.01 ± 0.01
T/M ratio of treated tumor [4, 23]: 1.11 ± 0.01
^68Ga-NODAGA-c(NGR) SUVmean of treated tumor [4, 27]: 0.03 ± 0.01
T/M ratio of treated tumor [4, 24]: 1.63 ± 0.09
^68Ga-NODAGA-c(NGR) SUVmean of treated tumor [4, 28]: 0.04 ± 0.001
T/M ID%/g, treated animals [16]: 1.45±0.15
T/M ID%/g, treated animals [17]: 2.40±0.92
